In patent US11059778B2, “Cannabinoid receptor CB2 ligand 4-(aminomethyl)-N, N-dialkylanilines” (UNIVERSITY OF PITTSBURGH—OF THE COMMONWEALTH SYSTEM OF …, priority 2015, dated 2021):

Assays:
[1] = target: T1, CHO cells expressing human CB2 receptors (Homo sapiens, UniProt P34972); experiment: cell-based LANCE cAMP assay; details: forskolin-stimulated, RO-20-1724 present, FIG. 4
T1 construct: expressed in transfected cells; host or cells: CHO cells, stably transfected
Procedure: FIG. 4 relates to cAMP Assay Results. LANCE signal of CB2 ligands. Stably transfected CHO cells expressing human CB2 receptors were utilized to carry out the LANCE cAMP assay. […] Data is mean±SEM of all experiments of two or more performed in triplicate.
(§1) The antibodies are labeled with Alexa Fluor dye that is sensitive to energy emissions. Briefly, the cell-based LANCE cAMP assays were performed on 384-well ProxiPlates using CHO cells stably expressing the CB2 receptors at density of 2×10^3 cells per well in 5 μL of RPMI-1640 medium (Gibco Laboratories, Grand Island, N.Y.) containing 1% dialyzed FBS, 25 mM HEPES, […], and 200 μg/ml of […]. After incubation overnight, 2.5 μL of cAMP antibody and RO20-1724 (a phosphodiesterase inhibitor) in stimulation buffer (DPBS 1×, containing 0.1% BSA) was added to each well, followed by the addition of 2.5 μL of the compound plus the forskolin complex (an adenyl cyclase activator). After incubation at room temperature for 45 minutes, 10 μL of detection buffer was added into each well. The plate was then incubated at room temperature for 1 hour. The plate was then measured in a Synergy H1 hybrid reader (BioTek) with excitation at 340 nm and emission at 665 nm. The results represent at least two independent experiments each in triplicates. EC50 values were determined by nonlinear regression dose-response curve (GraphPad Prism 5).
as §1, with “Cyclic AMP levels were measured by performing the cell-based LANCE cAMP-384 kit assay (PerkinElmer) as previously described 13-14. The assay is based on the competition between the europium-labeled cAMP tracer complex and sample cAMP for binding sites on cAMP-specific antibodies. The antibodies” for “The antibodies”
The LANCE cAMP assay was carried out to measure the functional activities of our synthesized CB2 selective ligands as previously described 14. Briefly, the assay was performed on 384-well plates using CHO cells stably expressing CB2 receptors in the presence of phosphodiesterase inhibitor, RO-20-1724 and adenyl cyclase activator, forskolin.

human CB1 receptors = target: T2, human CB1 receptors (Homo sapiens, UniProt P21554); experiment: [3H]CP-55,940 radioligand competition binding assay, CB1; details: CHO cell membranes, [3H]CP-55,940 displacement
T2 construct: expressed in transfected cells
Procedure: (§2) Binding assay. The bioassay is carried out using the Perkin Elmer 96-well Top Counter. This bioassay is also known as a competition binding assay and the biological evaluation is to determine the CB receptor binding affinity (Ki) of the screened ligands by displacing [^3H]-CP-55940 (or other radioligands). The brief procedure is given below.
(§3) Perkin Elmer 96-well TopCounter is used at PMLSC and in our laboratory to determine the CB receptor binding affinity (Ki) of the in-silico screened ligands by displacing [^3H]-CP-55,940 (or other radioligands). In competition binding experiments, the tested compound dilutions are carried out in triplicate in TME buffer (25 mM Tris, 5 mM MgCl2, 1 mM EDTA) containing 0.1% (w/v) fatty acid free bovine serum albumin (BSA), pH 7.4. Various concentrations of the tested compound are added in the same volume to 0.5 nM [^3H]CP-55,940. TME buffer and cell membrane preparations expressing CB receptors (2.5 μg per well) are added to a final volume of 200 μL. For the saturation binding experiments, varying concentrations of [^3H]CP-55,940 (0.05-1.5 nM) with or without 2 μM of unlabeled ligands (CP-55,940 or WIN-55,212-2) are incubated with the receptor membrane preparations to determine Kd and nonspecific binding. After the binding suspensions are incubated at 30° C. for 1 hr, the reaction is terminated by rapid filtration through microfiltration plates coated with 0.5% polyethylenimine (Unifilter GF/B filterplate, PerkinElmer) followed by 5 washes with ice cold TME buffer containing 0.5% BSA on a Packard Filtermate Harvester (PerkinElmer). The plates are then dried overnight and 30 μl MicroScint 0 scintillation cocktail are added to each well of the dried filter plates. Then the bound radioactivity is counted using a Perkin Elmer 96-well TopCounter. The Ki is calculated by using nonlinear regression analysis (Prism 5; GraphPad Software Inc., San Diego, Calif.), with the Kd values for [^3H]CP-55,940 determined from saturation binding experiments. This assay is used for determining binding affinity parameters (Ki) of ligand-receptor interactions for the CB receptor.
(§4) The affinities of the synthesized ligands were determined in radioligand binding studies at human CB1 and CB2 receptors using [3H](—)-cis-3-[2-hydroxy-4-(1,1 dimethylheptyl)phenyl]-trans-4-(3-hydroxypropyl) cyclohexanol (CP55,940) as a CB receptor radioligand. As a source for human CB1 and CB2 receptors, membrane preparations of Chinese hamster ovary (CHO) cells stably expressing the respective receptor subtype were utilized (50 μg of protein/vial). CB2 selective ligand SR144528 (CB2 inverse agonist) and CB1 ligand SR141716 (CB1 inverse agonist) were used as positive controls, respectively, along with the tested compounds in bioassays experiments. Only compounds with high CB2 receptor binding potency was chosen to carry out the CB1 binding assay. CB ligand competition binding assay was carried out as described previously in Gertsch, J., et al., Beta-caryophyllene is a dietary cannabinoid. Proc Natl Acad Sci USA 2008, 105 (26), 9099-104. Briefly, non-radioactive (or cold) ligands (synthesized derivatives and reference ligands) were diluted in a binding buffer (50 mM Tris-HCl (pH 7.4), 5 mM MgC12, 2.5 mM EGTA, and 0.1% (w/v) fatty acid free BSA), supplemented with 10% dimethyl sulfoxide and 0.4% methyl cellulose. Each assay plate well contained a total of 200 μL of reaction mixture composed of 5 μg of CB1 (or 2.5 μg CB2) membrane protein, labeled [3H]-CP-55,940 ligand at a final concentration of 2.5 nM, and the unlabeled ligand at its varying dilutions as stated above. Plates were incubated at 30° C. for 1 hour with gentle shaking.
(§5) The reaction was terminated by rapid filtration through Unifilter GF/B filter plates using a Unifilter Cell Harvester (PerkinElmer). After the plate was allowed to dry overnight, 30 μL MicroScint-0 cocktail (PerkinElmer) was added to each well, and the radioactivity was counted using a PerkinElmer TopCounter. […]

human CB2 receptors = target: T3, human CB2 receptors (Homo sapiens, UniProt P34972); experiment: [3H]CP-55,940 radioligand competition binding assay, CB2; details: for Ki: CHO cell membranes, [3H]CP-55,940 displacement
T3 construct: expressed in transfected cells
Procedure: as §2, §3, §4, §5

T2 sequence (P21554 whole entry): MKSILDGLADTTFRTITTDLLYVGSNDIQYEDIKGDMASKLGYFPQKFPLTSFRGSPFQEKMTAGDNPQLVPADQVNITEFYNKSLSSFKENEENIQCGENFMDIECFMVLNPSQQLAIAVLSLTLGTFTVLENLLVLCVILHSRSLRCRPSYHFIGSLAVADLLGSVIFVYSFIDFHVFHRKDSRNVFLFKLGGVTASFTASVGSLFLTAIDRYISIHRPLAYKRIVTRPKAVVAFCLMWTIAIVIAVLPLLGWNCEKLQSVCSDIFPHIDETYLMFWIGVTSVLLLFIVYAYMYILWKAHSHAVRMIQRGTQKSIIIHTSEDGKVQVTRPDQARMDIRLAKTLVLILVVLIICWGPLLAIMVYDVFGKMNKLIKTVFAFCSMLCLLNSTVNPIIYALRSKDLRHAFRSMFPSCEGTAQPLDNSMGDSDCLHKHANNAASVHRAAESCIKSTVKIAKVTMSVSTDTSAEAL
T3 sequence (P34972 whole entry): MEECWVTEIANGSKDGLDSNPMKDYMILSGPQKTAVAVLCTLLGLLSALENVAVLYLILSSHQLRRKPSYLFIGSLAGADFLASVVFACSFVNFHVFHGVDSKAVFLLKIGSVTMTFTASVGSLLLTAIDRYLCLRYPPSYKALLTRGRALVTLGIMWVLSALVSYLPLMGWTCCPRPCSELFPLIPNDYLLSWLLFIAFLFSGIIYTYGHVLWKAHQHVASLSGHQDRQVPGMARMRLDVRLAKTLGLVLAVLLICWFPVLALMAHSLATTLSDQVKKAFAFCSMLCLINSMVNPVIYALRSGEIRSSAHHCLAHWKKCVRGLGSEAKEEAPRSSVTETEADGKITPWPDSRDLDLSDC
T1 sequence (P34972 whole entry): as above

Compound | CB2 functional activity (LANCE cAMP signal) [1] | Ki (human CB1 receptors) | SI: selectivity index for CB2, calculated as Ki(CB1)/Ki(CB2) ratio (human CB2 receptors) | Ki (human CB2 receptors)
CCCCCCC(C)(C)c1ccc([C@@H]2C[C@H](O)CC[C@H]2CCCO)c(O)c1 [CP55940, (—)-cis-3-[2-hydroxy-4-(1,1 dimethylheptyl)phenyl]-trans-4-(3-hydroxypropyl) cyclohexanol, reference compound] | inhibit cAMP production | – | – | –
CCN(CC)c1ccc(CN(Cc2ccc3c(c2)OCO3)S(=O)(=O)/C=C/c2ccccc2)cc1 [Compound 29, (E)-N-(benzo[d][1,3]dioxol-5-ylmethyl)-N-(4-(diethylamino)benzyl)-2-phenylethene-1-sulfonamide] | – | 1.16 µM | 3 | 0.381 µM
CCN(CC)c1ccc(CN(Cc2ccc3c(c2)OCO3)S(=O)(=O)c2ccc(C=O)cc2)cc1 [Compound 30, N-(benzo[d][1,3]dioxol-5-ylmethyl)-N-(4-(diethylamino)benzyl)-4-formylbenzenesulfonamide] | – | 2.74 µM | 1 | 1.87 µM
CCN(CC)c1ccc(CN(Cc2ccc3c(c2)OCO3)C(=O)c2cccs2)cc1 [Compound 32, N-(benzo[d][1,3]dioxol-5-ylmethyl)-N-(4-(diethylamino)benzyl)thiophene-2-carboxamide] | – | 0.727 µM | 2 | 0.574 µM
CCCCCN(Cc1ccc(N(CC)CC)cc1)S(=O)(=O)/C=C/c1ccccc1 [Compound 37, (E)-N-(4-(diethylamino)benzyl)-N-pentyl-2-phenylethene-1-sulfonamide] | – | 5.24 µM | 10 | 0.515 µM
CCCCCN(Cc1ccc(N(CC)CC)cc1)S(=O)(=O)c1ccc(C=O)cc1 [Compound 38, N-(4-(diethylamino)benzyl)-4-formyl-N-pentylbenzenesulfonamide] | – | 1.79 µM | 3 | 0.657 µM
CCCCCN(Cc1ccc(N(CC)CC)cc1)C(=O)c1cnc2ccccc2n1 [Compound 39, N-(4-(diethylamino)benzyl)-N-pentylquinoxaline-2-carboxamide] | – | 1.86 µM | 1 | 1.85 µM
CCCCCN(Cc1ccc(N(CC)CC)cc1)C(=O)c1cccs1 [Compound 40, N-(4-(diethylamino)benzyl)-N-pentylthiophene-2-carboxamide] | – | 2.44 µM | 7 | 0.362 µM
SR-144,528 [reference compound] | inverse agonists | – | – | –
